Measured values taken from patent US20020035125A1, “Therapeutic combination” (priority 2000, published 2002).

Settings: 100% relative humidity over 48 hours

- Hygroscopicity: Non-hygroscopic
Structure (SMILES): CCOC(=O)N1c2ccc(C(F)(F)F)cc2[C@@H](N(Cc2cc(C(F)(F)F)cc(C(F)(F)F)c2)C(=O)OC)C[C@H]1CC [Example 9, Anhydrous (−)-(2R,4S)-4-[(3,5-Bis-trifluoromethyl-benzyl)-methoxycarbonyl-amino]-2-ethyl-6-trifluoromethyl-3,4-dihydro-2H-quinoline-1-carboxylic Acid Ethyl Ester]
